According to US20100297261A1, “Food Product and Fortification System Therefor” (priority 2005, published 2010):

Assays:
[1] = humans; split by hydrolases in the small intestine; cited from earlier work
[2] = guinea pigs; split by α-glucosidase in brush border of small intestine; cited from earlier work
[3] = In vitro estimation of iron dialyzability (dough, simulated gastrointestinal conditions)
Method: All glass vessels used were incubated over night in 10% (v/v) HNO3 in water and subsequently rinsed with demineralised water. […] The dough was divided in portions of 16 g and stored at −20° C. until dissolution experiments took place.
The dough portions were suspended in water and homogenized for 10 s with a Braun Blender (type 4142) set at maximum speed. Subsequently, water, 0.45 g pepsin and HCl were added to a yield a 90 ml suspension of dough in simulated gastric fluid of pH 2.0. A 20 g sample was taken from the homogenous suspension for determination of total iron. The suspension was transferred to the vessel of a dissolution apparatus (VanK1 VK700, Varian; United States Pharmacopoeia (USP) dissolution apparatus, type II. Conditions for rotations per minute enzyme types and concentrations etc. taken as in the USP; <711> Dissolution; USP26/NF21; 2003; p. 1578-1579). […]
Dialyzable iron (sum of Fe^2+ and Fe^3+) was determined using a Hitachi 912 Analyser and reagents for the analysis of iron in human serum based on FerroZine (Roche Diagnostics Nederland BV). […]
Dialyzable iron is expressed as the percentage of the total iron present in the digest, assuming that it had equilibrated across the dialysis membrane by the time the content of the dialysis bag was collected.

Row | SMILES | Free ascorbic acid in the blood after consumption [1] | Intestinal absorption of intact compound [2] | In vitro dialyzable Ionic iron (% of total iron) ([3]; dough with 50 mg/Kg iron from ferrous sulphate, Fe:enhancer 1:3, means ± SD of 4 or 5 experiments) | Relative availability ([3]; relative to the availability of iron from FeSO4)
1 | O=C1O[C@H]([C@@H](O)CO)C(O)=C1O[C@H]1O[C@H](CO)[C@@H](O)[C@H](O)[C@H]1O [AA-2G, 2-O-α-D-glucopyranosyl-L-ascorbic acid] | significant increase in free ascorbic acid in the blood | cannot be absorbed |  | 
2 | O=S(=O)([O-])[O-].[Fe+2] [Ferrous sulphate, ferrous sulphate] |  |  | 3.4 ± 1.8 % of total iron | 1.0
